In patent US12644886B2, “Biosensor microarray compositions and methods” (Arizona Board of Regents on Behalf of Arizona State …, priority 2013, dated 2026):
Blank lines part the entries; values can stand above or below the molecule they belong to.

Target: Src kinase (Homo sapiens, UniProt P12931)
Assay: FET biosensor detection of Src kinase auto-phosphorylation (phosphokinase activity)
Format: biochemical
Description: FIG. 6 FET Biosensor detection of phosphokinase activity.
In some embodiments the biosensor microarray is used to quantify kinetic rates of interaction between one or more analytes in a test sample and the corresponding detector polypeptides. In other embodiments, the biosensor microarray is used to assess inhibition of a protein activity or a protein-protein interaction. For example, where the detector polypeptide is a protein kinase substrate or a kinase with autophosphorylation activity, phosphokinase activity can be detected in the presence or absence of a known or putative inhibitor of the specific phosphokinase activity (see, e.g. FIGS. 6-7). […] Further, where increased kinase phosphorylation is associated with a particular disease state, the kinase activity of particular biological samples can be assessed by contacting a biosensor microarray described herein with the relevant biological sample and detecting phosphorylation of one or more detector polypeptides. Protein kinases are important targets in a number of health condition, e.g., cancer, pulmonary hypertension, diabetes, Alzheimer's, Parkinson's, CNS diseases, macular degeneration, Idiopathic pulmonary fibrosis, systemic sclerosis, rheumatoid disorders, among other diseases, allowing discovery of kinase inhibitor drugs and applying kinase functional screening as disease diagnostics

Chain of Src kinase (P12931 whole entry): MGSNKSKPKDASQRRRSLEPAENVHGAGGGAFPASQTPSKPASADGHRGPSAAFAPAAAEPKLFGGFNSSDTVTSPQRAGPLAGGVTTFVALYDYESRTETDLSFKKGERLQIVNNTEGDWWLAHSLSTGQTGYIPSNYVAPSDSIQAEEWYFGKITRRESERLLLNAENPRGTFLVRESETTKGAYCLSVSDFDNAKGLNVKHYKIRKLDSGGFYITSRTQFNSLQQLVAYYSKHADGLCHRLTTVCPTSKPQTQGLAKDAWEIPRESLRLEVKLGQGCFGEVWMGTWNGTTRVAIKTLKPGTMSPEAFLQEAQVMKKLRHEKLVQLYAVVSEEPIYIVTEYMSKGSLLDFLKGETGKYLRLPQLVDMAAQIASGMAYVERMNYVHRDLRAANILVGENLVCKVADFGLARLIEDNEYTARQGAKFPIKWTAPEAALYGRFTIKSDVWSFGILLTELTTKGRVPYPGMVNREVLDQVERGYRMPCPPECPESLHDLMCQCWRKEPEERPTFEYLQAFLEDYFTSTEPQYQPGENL

FDEC FET sensor response to Src kinase auto-phosphorylation upon addition (addition of ADP instead of ATP): no response
SMILES: Nc1ncnc2c1ncn2[C@@H]1O[C@H](COP(=O)(O)OP(=O)(O)O)[C@@H](O)[C@H]1O [ADP]

threshold voltage response (FDEC FET response to Src kinase auto-phosphorylation by detecting H+) (upon addition of 10 mM ATP): 200 mV
SMILES: Nc1ncnc2c1ncn2[C@@H]1O[C@H](COP(=O)(O)OP(=O)(O)OP(=O)(O)O)[C@@H](O)[C@H]1O [ATP]

SMILES: CN[C@@H]1C[C@H]2O[C@@](C)([C@@H]1OC)n1c3ccccc3c3c4c(c5c6ccccc6n2c5c31)C(=O)NC4 [Staurosporine]
Src kinase inhibition (real time detection of Src kinase autophosphorylation) (2 μM staurosporine, FET-based biosensor microarray): inhibition
